Source: ChEMBL document CHEMBL6127028, “Design and synthesis of TH19P01-Camptothecin based hybrid peptides inducing effective anticancer responses on sortilin positive cancer cells” (Bioorg Med Chem, 2024)
Values after ≈ are worked out from the molar mass of the structure shown. Active and inactive are the calls of the source. No cut-off for these calls is given here. Where a SMILES comes first, the peptide text is derived from it. [ ]: non-standard residue; d: D form. The star is where a group is joined. Succinyl(20-O-(20S)-CPT) = CC[C@@]1(OC(=O)CCC(=O)*)C(=O)OCc2c1cc1n(c2=O)Cc2cc3ccccc3nc2-1; Dnp = O=[N+]([O-])c1ccc(*)c([N+](=O)[O-])c1; DEAC = CCN(CC)c1ccc2cc(C(=O)*)c(=O)oc2c1; Nle = CCCC[C@H](N)C(=O)O

How the values were obtained:
[1] = test system: MDA-MB-231; assay: Cytostatic activity against human MDA-MB-231 cells overexpressing SORT1 assessed as reduction in cell viability incubated for 72 hrs by MTT assay; assay type: functional, cell-based; conditions: MDA-MB-231, 72 h
[2] = Drug uptake in human MDA-MB-231 cells assessed as increase in blue fluorescence intensity at 10 uM by SYBR Green I staining based live cell imaging analysis; assay type: ADME; conditions: mda-mb-231, 10 µM, TDE = time-dependent effect, time 2-12 hrs
[3] = Prodrug conversion in 5% human serum assessed as CPT release by measuring increase in fluorescence intensity at 50 uM measured for 6 days by fluorescence spectrophotometric analysis; assay type: ADME, cell-free; conditions: 144 h, time 6 day
[4] = Prodrug conversion in 5% human serum assessed as CPT release by measuring increase in fluorescence intensity at 50 uM measured at 0 hrs by fluorescence spectrophotometric analysis; assay type: ADME, cell-free
[5] = Prodrug conversion in human MDA-MB-231 cells overexpressing SORT1 assessed as CPT release by measuring increase in fluorescence intensity at 1.5 uM measured for 120 hrs by fluorescence based analysis; assay type: ADME, cell-based; conditions: mda-mb-231, 120 h
[6] = test system: Erythrocyte; assay: Induction of hemolysis in mouse erythrocytes at 0.03 to 30 uM incubated for 4 hrs; assay type: toxicity, cell-based; conditions: dose 0.03-30 µM
[7] = test system: 4T1; assay: Anti-migration activity against mouse 4T1 cells assessed as cell motility at 1.5 uM incubated for 2 hrs followed by PBS washing and incubation in complete medium for 24 hrs by wound healing assay (reference value: 68.9%); assay type: functional
[8] = Aqueous solubility of the compound in water by UV/Vis spectrophotometry relative to free camptothecin; assay type: physicochemical; conditions: buffer
[9] = test system: MDA-MB-231; assay: Anti-proliferative activity against human MDA-MB-231 cells assessed as inhibition of cell proliferation at 1XIC50 measured after 72 hrs by time-kill curve analysis; assay type: functional
[10] = test system: MDA-MB-231; assay: Anti-proliferative activity against human MDA-MB-231 cells assessed as inhibition of cell proliferation at 0.5XIC50 to 1XIC50 measured after 36 to 72 hrs by time-kill curve analysis; assay type: functional, cell-based; conditions: time 36-72 hrs
[11] = Induction of hemolysis in mouse erythrocytes assessed as hemolysis rate at 0.3 uM incubated for 4 hrs; assay type: toxicity, cell-based, Erythrocyte; conditions: read-out: Activity
[12] = test system: MDA-MB-231; assay: Anti-proliferative activity against human MDA-MB-231 cells assessed as inhibition of cell proliferation at 1XIC50 measured at <36 hrs by time-kill curve analysis; assay type: functional
[13] = test system: MDA-MB-231; assay: Anti-migration activity against human MDA-MB-231 cells assessed as cell motility at 1.5 uM incubated for 2 hrs followed by PBS washing and incubation in complete medium for 24 hrs by wound healing assay (reference value: 55.3%); assay type: functional
[14] = Induction of hemolysis in mouse erythrocytes assessed as hemolysis rate at 30 uM incubated for 4 hrs; assay type: toxicity, cell-based, Erythrocyte; conditions: read-out: Activity
[15] = Drug uptake in human MDA-MB-231 cells assessed as increase in blue fluorescence intensity at 10 uM measured after 2 to 12 hrs by SYBR Green I staining based live cell imaging analysis; assay type: ADME; conditions: mda-mb-231, 10 µM, time 2-12 hrs
[16] = Cytostatic activity against HEK293T cells assessed as reduction in cell viability incubated for 72 hrs by MTT assay; assay type: toxicity, cell-based, HEK-293T; conditions: human
[17] = test system: 4T1; assay: Cytostatic activity against mouse 4T1 cells expressing low SORT1 assessed as reduction in cell viability incubated for 72 hrs by MTT assay; assay type: functional, cell-based; conditions: 4T1, 72 h
[18] = Cytostatic activity against mouse L929 cells assessed as reduction in cell viability incubated for 72 hrs by MTT assay; assay type: toxicity, cell-based
[19] = test system: MDA-MB-231; assay: Anti-proliferative activity against human MDA-MB-231 cells assessed as inhibition of cell proliferation at 1.5 uM measured for 0 to 72 hrs by time-kill curve analysis; assay type: functional; conditions: time 0-72 hrs
[20] = test system: MDA-MB-231; assay: Anti-migration activity against human MDA-MB-231 cells assessed as cell motility at 1.5 uM incubated for 2 hrs in presence of TH19P01 followed by PBS washing and incubation in complete medium for 24 hrs by wound healing assay (reference value: 55.3%); assay type: functional
[21] = test system: 4T1; assay: Anti-migration activity against mouse 4T1 cells at 1.5 uM incubated for 2 hrs in presence of TH19P01 followed by PBS washing and incubation in complete medium for 24 hrs by wound healing assay; assay type: functional, cell-based
[22] = test system: MDA-MB-231; assay: Anti-proliferative activity against human MDA-MB-231 cells assessed as inhibition of cell proliferation at 1XIC50 measured for 0 to 72 hrs in presence of TH19P01 by time-kill curve analysis; assay type: functional, cell-based; conditions: time 0-72 hrs
[23] = test system: Erythrocyte; assay: Induction of hemolysis in mouse erythrocytes at >3 uM incubated for 4 hrs in presence of TH19P01; assay type: toxicity, cell-based
[24] = Aqueous solubility of the compound in water by UV/Vis spectrophotometry; assay type: physicochemical
[25] = Drug uptake in human MDA-MB-231 cells assessed as increase in blue fluorescence intensity at 10 uM measured after 2 to 12 hrs in presence of TH19P01 by SYBR Green I staining based live cell imaging analysis; assay type: ADME; conditions: mda-mb-231, 10 µM, time 2-12 hrs
[26] = test system: MDA-MB-231; assay: Anti-proliferative activity against human MDA-MB-231 cells assessed as inhibition of cell proliferation at 1XIC50 measured after 72 hrs in presence of TH19P01 by time-kill curve analysis; assay type: functional
[27] = test system: MDA-MB-231; assay: Anti-proliferative activity against human MDA-MB-231 cells assessed as inhibition of cell proliferation at 1XIC50 measured for 0 to 72 hrs by time-kill curve analysis; assay type: functional, cell-based; conditions: time 0-72 hrs
[28] = test system: MDA-MB-231; assay: Cytostatic activity against human MDA-MB-231 cells overexpressing SORT1 assessed as reduction in cell viability incubated for 72 hrs in presence of TH19P01 by MTT assay; assay type: functional, cell-based; conditions: MDA-MB-231, 72 h
[29] = test system: 4T1; assay: Cytostatic activity against mouse 4T1 cells expressing low SORT1 assessed as reduction in cell viability incubated for 72 hrs in presence of TH19P01 by MTT assay; assay type: functional, cell-based; conditions: 4T1, 72 h

Compound	IC50 [1]	Activity [6]	Activity [7]	inhibition (INH) [9]	Activity [13]	IC50 at 72 h [16]	IC50 [17]	IC50 at 72 h [18]	further results
CCCC[C@H](NC(=O)[C@H](CC(N)=O)NC(=O)[C@H](CCCNC(=N)N)NC(=O)[C@@H](NC(=O)CNC(=O)[C@H](C)NC(=O)[C@H](CCCCNC(=O)c1cc2ccc(N(CC)CC)cc2oc1=O)NC(=O)[C@H](C)NC(=O)[C@H](CCCNC(=N)N)NC(=O)[C@@H](NC(=O)CNC(C)=O)C(C)C)C(C)C)C(=O)N[C@@H](Cc1ccccc1)C(=O)N[C@@H](CCCCNC(C)=O)C(=O)N[C@@H](CO)C(=O)N[C@@H](CCC(=O)O)C(=O)N[C@@H](CO)C(=O)N[C@@H](Cc1ccc(O)cc1)C(N)=O (Ac-GVRAK(DEAC)AGVRN[Nle]FK(Ac)SESY-NH2)	> 100000 nM								Drug uptake [2]: Tde
CCCC[C@H](NC(=O)[C@H](CC(N)=O)NC(=O)[C@H](CCCNC(=N)N)NC(=O)[C@@H](NC(=O)CNC(=O)[C@H](C)NC(=O)[C@H](CCCCNC(=O)CCC(=O)O[C@]1(CC)C(=O)OCc2c1cc1n(c2=O)Cc2cc3ccccc3nc2-1)NC(=O)[C@H](CCCCNc1ccc([N+](=O)[O-])cc1[N+](=O)[O-])NC(=O)[C@H](C)NC(=O)[C@H](CCCNC(=N)N)NC(=O)[C@@H](NC(=O)CNC(C)=O)C(C)C)C(C)C)C(=O)N[C@@H](Cc1ccccc1)C(=O)N[C@@H](CCCCNc1ccc([N+](=O)[O-])cc1[N+](=O)[O-])C(=O)N[C@@H](CCCCNC(=O)CCC(=O)O[C@]1(CC)C(=O)OCc2c1cc1n(c2=O)Cc2cc3ccccc3nc2-1)C(=O)N[C@@H](CO)C(=O)N[C@@H](CCC(=O)O)C(=O)N[C@@H](CO)C(=O)N[C@@H](Cc1ccc(O)cc1)C(N)=O (Ac-GVRAK(Dnp)K(Succinyl(20-O-(20S)-CPT))AGVRN[Nle]FK(Dnp)K(Succinyl(20-O-(20S)-CPT))SESY-NH2)	1520 nM								Drug metabolism [3]: Metabolite_Detected; Drug metabolism [4]: Metabolite_Notdetected; Drug metabolism [5]: Metabolite_Detected
CCCC[C@H](NC(=O)[C@H](CC(N)=O)NC(=O)[C@H](CCCNC(=N)N)NC(=O)[C@@H](NC(=O)CNC(=O)[C@H](C)NC(=O)[C@H](CCCCNC(=O)CCC(=O)O[C@]1(CC)C(=O)OCc2c1cc1n(c2=O)Cc2cc3ccccc3nc2-1)NC(=O)[C@H](C)NC(=O)[C@H](CCCNC(=N)N)NC(=O)[C@@H](NC(=O)CNC(C)=O)C(C)C)C(C)C)C(=O)N[C@@H](Cc1ccccc1)C(=O)N[C@@H](CCCCNC(=O)CCC(=O)O[C@]1(CC)C(=O)OCc2c1cc1n(c2=O)Cc2cc3ccccc3nc2-1)C(=O)N[C@@H](CO)C(=O)N[C@@H](CCC(=O)O)C(=O)N[C@@H](CO)C(=O)N[C@@H](Cc1ccc(O)cc1)C(N)=O (Ac-GVRAK(Succinyl(20-O-(20S)-CPT))AGVRN[Nle]FK(Succinyl(20-O-(20S)-CPT))SESY-NH2)	1470 nM	Toxic	58.6%	45.3%	13.3%	11100 nM	2050 nM	> 100000 nM	fold change (FC) [8]: 90; Activity [10]: Dose-Dependent Effect; hemolysis at 4 h, 0.3 µM [11]: 1.5%; inhibition (INH) [12]: <10%; hemolysis at 4 h, 30 µM [14]: < 5%; Drug uptake [15]: Active
CCCC[C@H](NC(=O)[C@H](CC(N)=O)NC(=O)[C@H](CCCNC(=N)N)NC(=O)[C@@H](NC(=O)CNC(=O)[C@H](C)NC(=O)[C@H](CCCCN)NC(=O)[C@H](C)NC(=O)[C@H](CCCNC(=N)N)NC(=O)[C@@H](NC(=O)CNC(C)=O)C(C)C)C(C)C)C(=O)N[C@@H](Cc1ccccc1)C(=O)N[C@@H](CCCCN)C(=O)N[C@@H](CO)C(=O)N[C@@H](CCC(=O)O)C(=O)N[C@@H](CO)C(=O)N[C@@H](Cc1ccc(O)cc1)C(N)=O (Ac-GVRAKAGVRN[Nle]FKSESY-NH2)	> 100000 nM	Toxic	67.9%		46.3%	> 100000 nM	> 100000 nM	> 100000 nM	inhibition at 1.5 µM [19]: < 10%
CC[C@@]1(O)C(=O)OCc2c1cc1n(c2=O)Cc2cc3ccccc3nc2-1 [CAMPTOTHECIN]	630 nM	Toxic	69.2%	52.8%	44.6%	< 10 nM	30 nM	15700 nM	Activity [20]: 37.7%; Activity [21]: Active; Activity [22]: Active; Activity [23]: Toxic; solubility [24]: 3.6 µM (≈ 1.25 µg/mL); Drug uptake [25]: Active; inhibition (INH) [26]: 50.8%; Activity [27]: Active; IC50 [28]: 720 nM; IC50 [29]: < 32 nM
